{"source": "patent US12461092B2", "about": "“Screening method for APP cleavage activity-controlling substances of ADAMTS4” (SHIMADZU CORPORATION, priority 2019, dated 2025)", "key": {"[1]": {"system": "A549-wild type (wt) cells", "assay": "Aβ-related peptide production in culture supernatant of A549-wt cells by IP-MS (Example 1)", "format": "cell-based, human", "details": "25 μM, 96 hours, compared with DMSO control", "procedure": "After the antigen antibody reaction, the antibody immobilized beads were washed with a first washing buffer [washed once with 100 μL of the first washing buffer (0.1% DDM, 0.1% NTM, 50 mM Tris-HCl (pH 7.4) and 150 mM NaCl), and then once with 50 μL of a 50 mM ammonium acetate buffer]. Thereafter, the Aβ-related peptide captured by the antibody immobilized beads was eluted with a glycine buffer containing DDM (50 mM glycine buffer containing 0.1% of DDM, pH 2.8). To the thus obtained eluate, Tris buffer containing DDM [800 mM GlcNAc, 0.2% (w/v) DDM, 300 mM NaCl, and 300 mM Tris-HCl buffer (pH 7.4)] was added to restore the pH to neutral (pH 7.4). Thereafter, the neutral eluate was contacted with the antibody immobilized beads at 4° C. for 1 hour again to cause the antigen antibody reaction of the Aβ-related peptide. The resultant was washed with a second washing buffer [washed twice with 100 μL of the second washing buffer (0.1% DDM, 150 mM Tris-HCl (pH 7.4), and 150 mM NaCl), and once with 50 μL of a 50 mM ammonium acetate buffer], and then, the Aβ-related peptide captured by the antibody immobilized beads was eluted with an eluent (5 mM HCl, 0.1 mM methionine, and 70% (v/v) acetonitrile). In this manner, each eluate containing the Aβ-related peptide was obtained through two-stage IP operation. […]"}, "A549-ADAMTS4 KO cells": {"system": "A549-ADAMTS4 KO cells", "assay": "Aβ-related peptide production in culture supernatant of A549-ADAMTS4 KO cells by IP-MS (Example 1)", "format": "cell-based, human", "details": "25 μM, 96 hours, compared with DMSO control", "experimental": "In A549 cells, an influence on production of APP669-x caused by ADAMTS4 knockout using CRISPR/Cas9 (clustered regularly interspaced short palindromic repeats/CRISPR associated proteins) and guide RNA (gRNA), and a treatment with GM6001, a metalloprotease inhibitor, was evaluated. A549 cell is human adenocarcinomic alveolar basal epithelial cell. The gRNA was designed using CRISPR Search (https://www.sanger.ac.uk/htgt/wge/find_crisprs).\nVectors in which cDNAs respectively encoding paired gRNAs targeting ADAMTS4 were inserted respectively into vector px335 (Addgene 042335) expressing SpCas9 nickase and gRNA and retrovirus-derived vector pBabe Puro U6 BbsI (donated by Professor Dario Alessi, Dundee University) were constructed.\nThese vectors were transfected, and the resultant transfectants were subjected to selection with puromycin for monocloning. A genome was extracted from each monoclonal cell, and a genome fragment including a gene region targeted by gRNA was amplified by PCR to be subjected to sanger sequencing. Primers used for amplifying the genome fragment were as follows: […]\nAs a result of analysis of a plurality of monoclonal cells, it was presumed that ADAMTS4 gene region of A549 cell has three alleles. Then, a monoclonal cell respectively having deletion of 16 bp, 29 bp and 20 bp in the gene region of ADAMTS4 gene as shown in FIG. 2 was obtained. Since none of these is a multiple of 3, it is presumed that normal ADAMTS4 protein is not expressed. Therefore, it was regarded that this cell is A549 cell having endogenous ADAMTS4 knockout (KO) (A549-ADAMTS4 KO cell).\nA metalloprotease inhibitor, GM6001 (25 μM), or dimethylsulfoxide (DMSO) used as a control was added to each of A549-ADAMTS4 KO cells and A549-wild type (wt) cells, and the resultant cells were incubated for 96 hours. Thereafter, a culture supernatant was collected, and stored at −80° C. until measurement.\n(§1) An Aβ-related peptide contained in the culture supernatant was measured by IP-MS corresponding to a combination of immunoprecipitation (IP) and mass spectrometry (MS). In IP, antibody immobilized beads obtained by covalent binding of anti-Aβ antibody clone 6E10 (BioLegend) to Dynabeads Epoxy (Thermo Fisher Scientific) were used.\nThe cryopreserved culture supernatant was thawed, and 250 μL of a reaction liquid containing internal standard peptides [800 mM GlcNAc, 0.2/a (w/v) NTM, 0.2% (w/v) DDM, 300 mM NaCl, and 100 mM Tris-HCl buffer (pH 7.4)] was mixed with 250 μL of the culture supernatant. The thus obtained mixture was mixed with the antibody immobilized beads, followed by an antigen antibody reaction at 4° C. for 1 hour. As the internal standard peptides, 22 μM stable isotope labeled Aβ1-38 and 100 μM stable isotope labeled A31-15 were used. […]"}, "[2]": {"system": "human neuroblastoma BE(2)-C", "assay": "Aβ-related peptide production in culture supernatant of BE(2)-C cells by IP-MS (Example 4)", "format": "cell-based", "details": "for APP669 cleavage activity (on the N-terminal side): conclusion from BE(2)-C and A549 cells", "experimental": "as §1\n(§2) The cryopreserved culture supernatant was thawed, and 250 μL of a reaction liquid containing internal standard peptides [800 mM GlcNAc, 0.2/a (w/v) NTM, 0.2% (w/v) DDM, 300 mM NaCl, and 100 mM Tris-HCl buffer (pH 7.4)] was mixed with 250 μL of the culture supernatant. The thus obtained mixture was mixed with the antibody immobilized beads, followed by an antigen antibody reaction at 4° C. for 1 hour. As the internal standard peptides, 22 μM stable isotope labeled Aβ1-38 and 100 μM stable isotope labeled A31-15 were used.\n(§3) After the antigen antibody reaction, the antibody immobilized beads were washed with a first washing buffer [washed once with 100 μL of the first washing buffer (0.1% DDM, 0.1% NTM, 50 mM Tris-HCl (pH 7.4) and 150 mM NaCl), and then once with 50 μL of a 50 mM ammonium acetate buffer]. Thereafter, the Aβ-related peptide captured by the antibody immobilized beads was eluted with a glycine buffer containing DDM (50 mM glycine buffer containing 0.1% of DDM, pH 2.8). To the thus obtained eluate, Tris buffer containing DDM [800 mM GlcNAc, 0.2% (w/v) DDM, 300 mM NaCl, and 300 mM Tris-HCl buffer (pH 7.4)] was added to restore the pH to neutral (pH 7.4). Thereafter, the neutral eluate was contacted with the antibody immobilized beads at 4° C. for 1 hour again to cause the antigen antibody reaction of the Aβ-related peptide. The resultant was washed with a second washing buffer [washed twice with 100 μL of the second washing buffer (0.1% DDM, 150 mM Tris-HCl (pH 7.4), and 150 mM NaCl), and once with 50 μL of a 50 mM ammonium acetate buffer], and then, the Aβ-related peptide captured by the antibody immobilized beads was eluted with an eluent (5 mM HCl, 0.1 mM methionine, and 70% (v/v) acetonitrile). In this manner, each eluate containing the Aβ-related peptide was obtained through two-stage IP operation.\n(§4) As a matrix for linear TOF, α-cyano-4-hydroxycinnamic acid (CHCA) was used. A matrix solution was prepared by dissolving 1 mg of CHCA in 1 mL of 70% (v/v) acetonitrile. As a matrix additive, 0.4% (w/v) methylenediphosphonic acid (MDPNA) was used. A 1 mg/mL CHCA solution and 0.4% (w/v) MDPNA were mixed in equivalent amounts to obtain a matrix/matrix additive solution [0.5 mg/mL CHCA/0.2% (w/v) MDPNA].\n(§5) Precedently, 0.5 μL of the matrix/matrix additive solution was added in a dropwise manner into respective wells of μFocus MALDI Plate™ 900 μm (Hudson Surface Technology, Inc., Fort Lee, NJ), and then dried.\n(§6) Each eluate resulting from IP was added in a dropwise manner into 4 wells of the μFocus MALDI Plate™ 900 μm, and then dried.\n(§7) Mass spectral data was obtained by linear TOF in the positive ion mode using AXIMA Performance (Shimadzu/KRATOS, Manchester, UK). An m/z value of linear TOF was indicated as an average mass of peaks. The m/z value was calibrated using, as external standards, human angiotensin II, human ACTH fragment 18-39, bovine insulin oxidized beta-chain, and bovine insulin.\n(§8) In the mass spectrum, signal intensity of each Aβ-related peptide was normalized using an internal standard peptide. Thereafter, an average of four normalized intensities obtained from one sample was obtained, which was evaluated as a production amount of the Aβ-related peptide. When there were two or more data not reaching a lower detection limit (S/N<3), it was regarded as undetectable.\n(§9) A metalloprotease inhibitor, 25 μM GM6001 (Cosmobio) or 10 μM INCB3619 (NPL 8), was caused to act on, or DMSO was added as a control to human neuroblastoma BE(2)-C and adenocarcinomic human alveolar basal epithelial cell A549, and the resultant cells were incubated for 96 hours. […]"}, "[3]": {"system": "adenocarcinomic human alveolar basal epithelial cell A549", "assay": "Aβ-related peptide production in culture supernatant of A549 cells by IP-MS (Example 4)", "format": "cell-based", "details": "96 hours, DMSO control", "experimental": "as §1, §2, §3, §4, §5, §6, §7, §8, §9"}, "APP stable HEK cells": {"system": "APP stable HEK cells", "assay": "Aβ-related peptide production in culture supernatant of APP stable HEK cells by IP-MS (Example 4)", "format": "cell-based, human", "details": "25 μM", "procedure": "As a matrix for linear TOF, α-cyano-4-hydroxycinnamic acid (CHCA) was used. A matrix solution was prepared by dissolving 1 mg of CHCA in 1 mL of 70% (v/v) acetonitrile. As a matrix additive, 0.4% (w/v) methylenediphosphonic acid (MDPNA) was used. […]\nIn the mass spectrum, signal intensity of each Aβ-related peptide was normalized using an internal standard peptide. Thereafter, an average of four normalized intensities obtained from one sample was obtained, which was evaluated as a production amount of the Aβ-related peptide. […]"}, "[4]": {"details": "BE(2)-C cells, 25 μM, 96 hours, DMSO control"}, "[5]": {"details": "BE(2)-C cells, 10 μM, 96 hours, DMSO control"}}}
{"compound": "CNC(=O)[C@H](Cc1c[nH]c2ccccc12)NC(=O)[C@@H](CC(=O)NO)CC(C)C", "note": "[GM6001]", "values": [{"measurement": "production amount of APP669-709 (Aβ(−3-38))", "setting": "[1]", "value": "tended to be decreased to substantially a half"}, {"measurement": "production amount of APP669-711 (Aβ(−3-40))", "setting": "[1]", "value": "tended to be decreased to substantially a half"}, {"measurement": "production amount of Aβ1-38", "setting": "[1]", "value": "tended to be rather increased"}, {"measurement": "production amount of Aβ1-40", "setting": "[1]", "value": "tended to be rather increased"}, {"measurement": "production amount of APP669-709 (Aβ(−3-38))", "setting": "A549-ADAMTS4 KO cells", "value": "tended to be decreased to substantially a half"}, {"measurement": "production amount of APP669-711 (Aβ(−3-40))", "setting": "A549-ADAMTS4 KO cells", "value": "tended to be decreased to substantially a half"}, {"measurement": "production amount of Aβ1-38", "setting": "A549-ADAMTS4 KO cells", "value": "tended to be rather increased"}, {"measurement": "production amount of Aβ1-40", "setting": "A549-ADAMTS4 KO cells", "value": "tended to be rather increased"}, {"measurement": "production amount of APP669-709 (Aβ(3-38))", "setting": "[2]; [4]", "value": "decreased"}, {"measurement": "production amount of APP669-711 (Aβ(−3-40))", "setting": "[2]; [4]", "value": "decreased"}, {"measurement": "production amount of Aβ1-38", "setting": "[2]; [4]", "value": "not decreased"}, {"measurement": "production amount of Aβ1-40", "setting": "[2]; [4]", "value": "not decreased"}, {"measurement": "APP669 cleavage activity (on the N-terminal side)", "setting": "[2]; 25 μM", "value": "decreases"}, {"measurement": "production amount of APP669-709 (Aβ(3-38))", "setting": "[3]; 25 μM", "value": "decreased"}, {"measurement": "production amount of APP669-711 (Aβ(−3-40))", "setting": "[3]; 25 μM", "value": "decreased"}, {"measurement": "production amount of Aβ1-38", "setting": "[3]; 25 μM", "value": "not decreased"}, {"measurement": "production amount of Aβ1-40", "setting": "[3]; 25 μM", "value": "not decreased"}, {"measurement": "production amount of APP669-709 (Aβ(3-38))", "setting": "APP stable HEK cells", "value": "decreased"}, {"measurement": "production amount of APP669-711 (Aβ(−3-40))", "setting": "APP stable HEK cells", "value": "decreased"}, {"measurement": "production amount of Aβ1-38", "setting": "APP stable HEK cells", "value": "not decreased"}, {"measurement": "production amount of Aβ1-40", "setting": "APP stable HEK cells", "value": "not decreased"}]}
{"compound": "COC(=O)N1CC2(CC2)C[C@H](C(=O)NO)[C@H]1C(=O)N1CC=C(c2ccccc2)CC1", "note": "[INCB3619]", "values": [{"measurement": "production amount of APP669-709 (Aβ(3-38))", "setting": "[2]; [5]", "value": "rather slightly decreased"}, {"measurement": "production amount of APP669-711 (Aβ(−3-40))", "setting": "[2]; [5]", "value": "rather slightly decreased"}, {"measurement": "APP669 cleavage activity (on the N-terminal side)", "setting": "[2]; 10 μM", "value": "low effect of decreasing"}, {"measurement": "production amount of APP669-709 (Aβ(3-38))", "setting": "[3]; 10 μM", "value": "not changed"}, {"measurement": "production amount of APP669-711 (Aβ(−3-40))", "setting": "[3]; 10 μM", "value": "not changed"}]}
